Legend:
S. pneumoniae D39V = assay: Bliss interaction score (quartile over a dose matrix) (fitness difference); higher = more antagonism (negative = synergy)
Procedure, shortened: (§1)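 Fitness was derived from optical density at entry into stationary phase, divided by the robust mean of the no-drug wells on the same plate. That reading was taken as OD595, and the ratio was capped at 1. Single-drug fitness was inferred from the combination data. The Bliss score, observed fitness minus the expected product of single-drug fitness, was summarised as quartiles over technical, biological and donor/recipient replicates.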

B. subtilis 168 [1] = assay: as above
Procedure, shortened: as §1

S. aureus DSM 20231 = assay: as above
Procedure, shortened: as §1

S. aureus Newman = assay: as above
Procedure, shortened: as §1

B. subtilis 168 [2] = assay: fitness (endpoint OD595 vs no drug) (fraction); higher = more growth
Procedure, shortened: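 Fitness expresses the optical density reached at the stationary-phase transition as a fraction of the robust mean of no-drug control wells. It is capped at 1. Measurements were OD595 every 30 min for 14 h at 37 °C after inoculation of 384-well plates at OD595 0.01 (30 µl, or 55 µl for S. pneumoniae), minus the first reading.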
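Wherever Bliss interaction score (quartile over a dose matrix) is given: first quartile when negative (synergy) and third quartile when positive (antagonism).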

CO[C@@H]1[C@@H](OC(N)=O)[C@@H](O)[C@H](Oc2ccc3c(O)c(NC(=O)c4ccc(O)c(CC=C(C)C)c4)c(=O)oc3c2C)OC1(C)C [Novobiocin] + CN(C)c1cc(NC(=O)CNC(C)(C)C)c(O)c2c1C[C@H]1C[C@H]3[C@H](N(C)C)C(O)=C(C(N)=O)C(=O)[C@@]3(O)C(O)=C1C2=O [Tigecycline]
Conditions	Bliss interaction score
B. subtilis 168 [1]	0.034
S. aureus DSM 20231	0.079
S. aureus Newman	0.03
S. pneumoniae D39V	0.0803

fitness, B. subtilis 168 [2]
Conditions	first compound 0.0125 µg/mL	first compound 0.025 µg/mL	first compound 0.05 µg/mL
partner 0.039 µg/mL	0.971	≥ 1	≥ 1
partner 0.078 µg/mL	0.952	0.986	0.977
partner 0.156 µg/mL	0.937	0.964	0.947

fitness, B. subtilis 168 [2], one replicate
Conditions	first compound 0.05 µg/mL	first compound 0.1 µg/mL	first compound 0.125 µg/mL	first compound 0.2 µg/mL	first compound 0.25 µg/mL	first compound 0.5 µg/mL
partner 0.039 µg/mL	–	–	0.893	–	0.888	0.501
partner 0.078 µg/mL	–	–	0.924	–	0.818	0.508
partner 0.125 µg/mL	≥ 1	≥ 1	–	≥ 1	–	–
partner 0.156 µg/mL	–	–	0.866	–	0.77	0.607
partner 0.25 µg/mL	0.943	0.95	–	≥ 1	–	–
partner 0.5 µg/mL	0.953	≥ 1	–	0.999	–	–

CO[C@@H]1[C@@H](OC(N)=O)[C@@H](O)[C@H](Oc2ccc3c(O)c(NC(=O)c4ccc(O)c(CC=C(C)C)c4)c(=O)oc3c2C)OC1(C)C [Novobiocin] + Cc1onc(-c2ccccc2)c1C(=O)N[C@@H]1C(=O)N2[C@@H]1SC(C)(C)[C@@H]2C(=O)O [Oxacillin]
Conditions	Bliss interaction score
B. subtilis 168 [1]	0.0603
S. aureus DSM 20231	0.0609
S. aureus Newman	-0.0672
S. pneumoniae D39V	-0.0758

fitness, B. subtilis 168 [2]
Conditions	first compound 0.0125 µg/mL	first compound 0.025 µg/mL	first compound 0.05 µg/mL
partner 0.002 µg/mL	0.988	0.974	≥ 1
partner 0.004 µg/mL	0.949	0.926	≥ 1
partner 0.008 µg/mL	0.946	0.895	≥ 1

fitness, B. subtilis 168 [2], one replicate
Conditions	first compound 0.05 µg/mL	first compound 0.1 µg/mL	first compound 0.125 µg/mL	first compound 0.2 µg/mL	first compound 0.25 µg/mL	first compound 0.5 µg/mL
partner 0.0078 µg/mL	–	–	0.997	–	0.968	0.547
partner 0.0155 µg/mL	–	–	0.952	–	0.948	0.498
partner 0.031 µg/mL	–	–	0.848	–	0.798	0.289
partner 0.075 µg/mL	0.673	0.672	–	0.734	–	–
partner 0.15 µg/mL	0.0266	0.0276	–	0.0165	–	–
partner 0.3 µg/mL	0.0465	0.036	–	0.0154	–	–

CC[C@H](C)[C@H](N)C1=N[C@H](C(=O)N[C@@H](CC(C)C)C(=O)N[C@H](CCC(=O)O)C(=O)N[C@H](C(=O)N[C@H]2CCCCNC(=O)[C@H](CC(N)=O)NC(=O)[C@@H](CC(=O)O)NC(=O)[C@H](Cc3cnc[nH]3)NC(=O)[C@@H](Cc3ccccc3)NC(=O)[C@H]([C@@H](C)CC)NC(=O)[C@@H](CCCN)NC2=O)[C@@H](C)CC)CS1 [Bacitracin] + CN(C)C(=O)C(CCN1CCC(O)(c2ccc(Cl)cc2)CC1)(c1ccccc1)c1ccccc1 [Loperamide]
main component drawn
Conditions	Bliss interaction score
B. subtilis 168 [1]	-0.13
S. aureus DSM 20231	-0.0677
S. aureus Newman	-0.0942
S. pneumoniae D39V	0.1

fitness, B. subtilis 168 [2], main component drawn
Conditions	first compound 37.5 µg/mL	first compound 75 µg/mL	first compound 150 µg/mL
partner 25 µg/mL	0.598	–	–
partner 50 µg/mL	–	0.0219	0.0315
partner 100 µg/mL	0.0325	0.0281	0.0237

CC[C@H](C)[C@H](N)C1=N[C@H](C(=O)N[C@@H](CC(C)C)C(=O)N[C@H](CCC(=O)O)C(=O)N[C@H](C(=O)N[C@H]2CCCCNC(=O)[C@H](CC(N)=O)NC(=O)[C@@H](CC(=O)O)NC(=O)[C@H](Cc3cnc[nH]3)NC(=O)[C@@H](Cc3ccccc3)NC(=O)[C@H]([C@@H](C)CC)NC(=O)[C@@H](CCCN)NC2=O)[C@@H](C)CC)CS1 [Bacitracin] + C[C@H]1COc2c(N3CCN(C)CC3)c(F)cc3c(=O)c(C(=O)O)cn1c23 [Levofloxacin]
main component drawn
Conditions	Bliss interaction score
B. subtilis 168 [1]	0.0288
S. aureus DSM 20231	0.034
S. aureus Newman	-0.043
S. pneumoniae D39V	-0.072

fitness, B. subtilis 168 [2], one replicate, main component drawn
Conditions	first compound 37.5 µg/mL	first compound 75 µg/mL	first compound 150 µg/mL
partner 0.001 µg/mL	0.94	0.969	0.728
partner 0.0078 µg/mL	0.842	0.844	0.439

fitness, B. subtilis 168 [2], main component drawn
Conditions	partner 0.002 µg/mL	partner 0.0039 µg/mL	partner 0.0312 µg/mL	partner 0.0625 µg/mL	partner 0.125 µg/mL
first compound 37.5 µg/mL	0.812	0.851	0.0268	0.0345	0.0392
first compound 75 µg/mL	0.851	0.818	0.0206	0.0236	0.0256
first compound 150 µg/mL	0.527	0.55	0.0178	0.0214	0.0173

CC[C@H](C)[C@H](N)C1=N[C@H](C(=O)N[C@@H](CC(C)C)C(=O)N[C@H](CCC(=O)O)C(=O)N[C@H](C(=O)N[C@H]2CCCCNC(=O)[C@H](CC(N)=O)NC(=O)[C@@H](CC(=O)O)NC(=O)[C@H](Cc3cnc[nH]3)NC(=O)[C@@H](Cc3ccccc3)NC(=O)[C@H]([C@@H](C)CC)NC(=O)[C@@H](CCCN)NC2=O)[C@@H](C)CC)CS1 [Bacitracin] + CO[C@@H]1[C@@H](OC(N)=O)[C@@H](O)[C@H](Oc2ccc3c(O)c(NC(=O)c4ccc(O)c(CC=C(C)C)c4)c(=O)oc3c2C)OC1(C)C [Novobiocin]
main component drawn
Conditions	Bliss interaction score
B. subtilis 168 [1]	0.126
S. aureus DSM 20231	-0.0399
S. aureus Newman	-0.0809
S. pneumoniae D39V	0.0678

fitness, B. subtilis 168 [2], main component drawn
Conditions	first compound 37.5 µg/mL	first compound 75 µg/mL	first compound 150 µg/mL
partner 0.0125 µg/mL	≥ 1	0.97	0.946
partner 0.025 µg/mL	0.988	≥ 1	0.941
partner 0.05 µg/mL	≥ 1	0.964	0.935

fitness, B. subtilis 168 [2], one replicate, main component drawn
Conditions	partner 0.1 µg/mL	partner 0.125 µg/mL	partner 0.2 µg/mL	partner 0.25 µg/mL	partner 0.5 µg/mL
first compound 37.5 µg/mL	0.817	0.917	0.861	0.894	0.431
first compound 75 µg/mL	0.763	0.959	0.804	0.922	0.293
first compound 150 µg/mL	0.534	0.861	0.63	0.559	0.164

CO[C@@H]1[C@@H](OC(N)=O)[C@@H](O)[C@H](Oc2ccc3c(O)c(NC(=O)c4ccc(O)c(CC=C(C)C)c4)c(=O)oc3c2C)OC1(C)C [Novobiocin] + CN1C2=CC=CC=C2N=C3C1=CC=CC3=O [Pyocyanin]
Conditions	Bliss interaction score
B. subtilis 168 [1]	-0.137
S. aureus DSM 20231	0.044
S. aureus Newman	0.0744
S. pneumoniae D39V	0.116

fitness, B. subtilis 168 [2]
Conditions	first compound 0.0125 µg/mL	first compound 0.025 µg/mL	first compound 0.05 µg/mL
partner 1.25 µg/mL	0.881	0.916	0.929
partner 2.5 µg/mL	0.847	0.827	0.858
partner 5 µg/mL	0.733	0.71	0.749

fitness, B. subtilis 168 [2], one replicate
Conditions	first compound 0.125 µg/mL	first compound 0.25 µg/mL	first compound 0.5 µg/mL
partner 1.25 µg/mL	0.837	0.701	0.13
partner 2.5 µg/mL	0.788	0.441	0.0992
partner 5 µg/mL	0.454	0.229	0.164

CO[C@@H]1[C@@H](OC(N)=O)[C@@H](O)[C@H](Oc2ccc3c(O)c(NC(=O)c4ccc(O)c(CC=C(C)C)c4)c(=O)oc3c2C)OC1(C)C [Novobiocin] + Cc1cc(NS(=O)(=O)c2ccc(N)cc2)no1 [Sulfamethoxazol]
Conditions	Bliss interaction score
B. subtilis 168 [1]	0.0447
S. aureus DSM 20231	0.0483
S. aureus Newman	0.041
S. pneumoniae D39V	-0.0959

fitness, B. subtilis 168 [2]
Conditions	first compound 0.0125 µg/mL	first compound 0.025 µg/mL	first compound 0.05 µg/mL
partner 1 µg/mL	0.932	0.959	0.951
partner 2 µg/mL	0.968	0.955	0.876
partner 4 µg/mL	0.966	0.989	0.92

fitness, B. subtilis 168 [2], one replicate
Conditions	first compound 0.05 µg/mL	first compound 0.1 µg/mL	first compound 0.125 µg/mL	first compound 0.2 µg/mL	first compound 0.25 µg/mL	first compound 0.5 µg/mL
partner 0.5 µg/mL	0.972	≥ 1	–	≥ 1	–	–
partner 1 µg/mL	–	0.864	0.999	0.81	0.897	0.49
partner 2 µg/mL	–	0.814	0.927	0.885	0.838	0.507
partner 4 µg/mL	–	–	≥ 1	–	0.909	0.482

Source: the supplement of paper PMC10627819
